Test results: article PMC12235690 (Journal of Proteome Research, 2025)
Numbered stars: 1 amine (or outer) side, 2 acyl side, 3 side chain; on linkers, the order of the positions; unused ones are H or OH. Square brackets hold non-standard residues; d marks the D form. Side chains are listed from the residue outwards. Peptide text beside a SMILES is read from it. * marks the point of attachment. Biotin = O=C1N[C@H]2[C@H](CS[C@H]2CCCCC(=O)*)N1; γGlu = O=C(O)[C@H](CCC(=O)[*:2])N[*:1]; Palmitoyl = CCCCCCCCCCCCCCCC(=O)*; PhLac = O=C(O)[C@@H](O)Cc1ccccc1; PEG4 = NCCOCCOCCOCCOCCC(=O)O

Experiments:
[1] = target: T1, GCGR (Homo sapiens, UniProt P47871); assay: GCGR cAMP accumulation, antagonist mode, native and biotinylated peptides; format: cell-based; conditions: HTRF, HEK Freestyle cells, arithmetic mean, n=3
T1 sequence (P47871 26-477): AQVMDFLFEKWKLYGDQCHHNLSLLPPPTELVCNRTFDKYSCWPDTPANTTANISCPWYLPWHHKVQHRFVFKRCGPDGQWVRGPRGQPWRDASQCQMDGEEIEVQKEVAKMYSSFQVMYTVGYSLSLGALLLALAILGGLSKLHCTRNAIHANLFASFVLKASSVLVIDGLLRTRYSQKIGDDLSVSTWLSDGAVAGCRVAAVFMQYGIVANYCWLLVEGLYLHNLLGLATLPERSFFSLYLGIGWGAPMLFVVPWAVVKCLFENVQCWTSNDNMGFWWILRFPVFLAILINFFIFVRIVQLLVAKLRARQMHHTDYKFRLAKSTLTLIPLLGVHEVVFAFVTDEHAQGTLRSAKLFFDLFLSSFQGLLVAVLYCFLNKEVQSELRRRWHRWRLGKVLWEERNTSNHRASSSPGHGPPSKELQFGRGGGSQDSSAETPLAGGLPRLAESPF
Protocol: HEK Freestyle cells (ThermoFisher Scientific, #R79007) seeded in suspension at a density of 250,000 cells/mL were transiently transfected with indicated receptor constructs using Fugene-6 reagent (Promega, #E2691). After 48 h, cells were pelleted and resuspended in assay buffer (DMEM, #Gibco 31053) containing 0.1% casein. Cells were then added at 1000 cells/well to 384-well white microplates (Costar, #3570) containing a range of agonist concentrations prepared via acoustic direct dilution in assay buffer containing 250 μM IBMX (total reaction volume of 20 μL), followed by incubation at 37 °C for 30 min. Cells were then lysed via sequential addition of d2-labeled cAMP competitor conjugate and cryptate-conjugated detection antibody (Revity, #62AM4PEC), then incubated for 1 h at room temperature with subsequent quantification of time-resolved fluorescence resonance energy transfer using an Envision plate reader and calibration to external synthetic cAMP standards in a parallel processed plate. Normalized percent values were fit to the 4-parameter logistic model using GraphPad Prism 10.1.2.
Figure S1. Enrichment of GCGR using biotinylated peptide ligands and bottom-up proteomic analysis of C-tail phosphorylation. A-B) GCGR cAMP accumulation was measured in (A) agonist mode and (B) antagonist mode using native and biotinylated peptides. Summary statistics for pharmacological […]

[2] = target: T1, GCGR; assay: GCGR cAMP accumulation, agonist mode, native and biotinylated peptides; format: cell-based; conditions: read-out: cAMP Emax Mean
Protocol: Figure S1. […] A-B) GCGR cAMP accumulation was measured in (A) agonist mode and (B) antagonist mode using native and biotinylated peptides.

[3] = target: GLP-1R_TEV_FLAG C-tail (Homo sapiens, UniProt P43220); conditions: WT GLP-1R_TEV C-tail; 1 μM ligand, 10 min 37 °C, FreeStyle 293 cells, LC-PRM, relative to DMSO
Sequence of GLP-1R_TEV_FLAG C-tail (P43220 24-431 limits assumed): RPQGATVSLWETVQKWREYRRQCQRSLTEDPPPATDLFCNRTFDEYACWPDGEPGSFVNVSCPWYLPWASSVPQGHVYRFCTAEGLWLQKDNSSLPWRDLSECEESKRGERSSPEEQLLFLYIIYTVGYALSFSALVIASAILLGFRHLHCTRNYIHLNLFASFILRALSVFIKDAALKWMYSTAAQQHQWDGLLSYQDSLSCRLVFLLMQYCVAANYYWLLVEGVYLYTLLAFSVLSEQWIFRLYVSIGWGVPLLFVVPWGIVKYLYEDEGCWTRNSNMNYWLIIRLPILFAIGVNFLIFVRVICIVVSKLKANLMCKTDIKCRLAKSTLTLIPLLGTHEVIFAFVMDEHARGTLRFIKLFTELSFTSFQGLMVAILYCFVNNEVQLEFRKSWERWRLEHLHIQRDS

[4] = target: GLP-1R S442A (Homo sapiens, UniProt P43220, S442A); assay: cell-based; conditions: read-out: cAMP Emax Mean
Sequence of GLP-1R S442A (P43220 24-463 S442A): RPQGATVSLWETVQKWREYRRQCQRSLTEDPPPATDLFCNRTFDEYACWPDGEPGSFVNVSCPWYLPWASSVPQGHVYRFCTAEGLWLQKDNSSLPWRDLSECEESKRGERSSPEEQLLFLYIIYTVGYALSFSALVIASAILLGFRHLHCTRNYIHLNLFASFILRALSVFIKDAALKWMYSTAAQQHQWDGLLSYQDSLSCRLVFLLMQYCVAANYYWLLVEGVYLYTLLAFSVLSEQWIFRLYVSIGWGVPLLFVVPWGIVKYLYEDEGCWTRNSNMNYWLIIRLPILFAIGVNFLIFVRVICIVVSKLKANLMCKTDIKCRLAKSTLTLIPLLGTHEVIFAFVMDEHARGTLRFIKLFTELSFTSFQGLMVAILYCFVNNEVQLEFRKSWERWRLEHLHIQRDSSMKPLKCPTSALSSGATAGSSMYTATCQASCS

[5] = target: GLP-1R 3S→A (S442A/S444A/S445A) (Homo sapiens, UniProt P43220, S442A/S444A/S445A); assay: cell-based; conditions: read-out: cAMP Emax Mean
Sequence of GLP-1R 3S→A (S442A/S444A/S445A) (P43220 24-463 S442A/S444A/S445A): as the sequence (P43220 24-463 S442A) above, with S421A, S422A counted along it

[6] = target: GLP-1R S444A (Homo sapiens, UniProt P43220, S444A); assay: cell-based; conditions: read-out: cAMP Emax Mean
Sequence of GLP-1R S444A (P43220 24-463 S444A): as the sequence (P43220 24-463 S442A) above, with A419S, S421A counted along it

[7] = target: GLP-1R WT (Homo sapiens, UniProt P43220); assay: cell-based; conditions: read-out: cAMP Emax Mean
Sequence of GLP-1R WT (P43220 24-463): as the sequence (P43220 24-463 S442A) above, with A419S counted along it
Protocol: (§1) Transfection for pharmacology experiments was conducted as previously described using FuGENE 6 (Promega, #E2691). […] Subsequently, 240 μL of room-temperature FuGENE 6 (Promega, #E2691) was added to the medium, mixed by inversion, and allowed to rest at room temperature for 5 min. 40 μg of the plasmid of interest was added to the FuGENE 6 containing medium, mixed by inversion, and allowed to rest at room temperature for 15–20 min.
(§2) HEK Freestyle cells (ThermoFisher Scientific, #R79007) seeded in suspension at a density of 250,000 cells/mL were transiently transfected with indicated receptor constructs using Fugene-6 reagent (Promega, #E2691). […] Cells were then lysed via sequential addition of d2-labeled cAMP competitor conjugate and cryptate-conjugated detection antibody (Revity, #62AM4PEC), then incubated for 1 h at room temperature with subsequent quantification of time-resolved fluorescence resonance energy transfer using an Envision plate reader and calibration to external synthetic cAMP standards in a parallel processed plate.

[8] = target: GLP-1R S445A (Homo sapiens, UniProt P43220, S445A); assay: cell-based; conditions: read-out: cAMP Emax Mean
Sequence of GLP-1R S445A (P43220 24-463 S445A): as the sequence (P43220 24-463 S442A) above, with A419S, S422A counted along it
Protocol: as §1, §2

For `CSCC[C@H](NC(=O)[C@H](CC(C)C)NC(=O)[C@H](Cc1c[nH]c2ccccc12)NC(=O)[C@H](CCC(N)=O)NC(=O)[C@@H](NC(=O)[C@H](Cc1ccccc1)NC(=O)[C@H](CC(=O)O)NC(=O)[C@H](CCC(N)=O)NC(=O)[C@H](C)NC(=O)[C@H](CCCNC(=N)N)NC(=O)[C@H](CCCNC(=N)N)NC(=O)[C@H](CO)NC(=O)[C@H](CC(=O)O)NC(=O)[C@H](CC(C)C)NC(=O)[C@H](Cc1ccc(O)cc1)NC(=O)[C@H](CCCCN)NC(=O)[C@H](CO)NC(=O)[C@H](CCCCNC(=O)CCOCCOCCOCCOCCNC(=O)CCCC[C@@H]1SC[C@@H]2NC(=O)N[C@@H]21)NC(=O)[C@H](CC(=O)O)NC(=O)[C@H](CO)NC(=O)[C@@H](NC(=O)[C@@H](O)Cc1ccccc1)[C@@H](C)O)C(C)C)C(=O)N[C@@H](CC(=O)O)C(=O)N[C@H](C(N)=O)[C@@H](C)O` [Biotin-GCGR antagonist] (H-[PhLac]TSDK([PEG4-Biotin])SKYLDSRRAQDFVQWLMDT-NH2), the Emax [1] was 120%.
For `CCCCCCCCCCCCCCCC(=O)N[C@@H](CCC(=O)N[C@@H](CCC(=O)NCCCC[C@H](NC(=O)[C@H](CC(=O)O)NC(=O)[C@H](CO)NC(=O)[C@@H](NC(=O)[C@@H](O)Cc1ccccc1)[C@@H](C)O)C(=O)N[C@@H](CO)C(=O)N[C@@H](CCCCN)C(=O)N[C@@H](Cc1ccc(O)cc1)C(=O)N[C@@H](CC(C)C)C(=O)N[C@@H](CC(=O)O)C(=O)N[C@@H](CO)C(=O)N[C@@H](CCCNC(=N)N)C(=O)N[C@@H](CCCNC(=N)N)C(=O)N[C@@H](C)C(=O)N[C@@H](CCC(N)=O)C(=O)N[C@@H](CC(=O)O)C(=O)N[C@@H](Cc1ccccc1)C(=O)N[C@H](C(=O)N[C@@H](CCC(N)=O)C(=O)N[C@@H](Cc1c[nH]c2ccccc12)C(=O)N[C@@H](CC(C)C)C(=O)N[C@@H](CCSC)C(=O)N[C@@H](CC(=O)O)C(=O)N[C@H](C(N)=O)[C@@H](C)O)C(C)C)C(=O)O)C(=O)O` [GCGR Antagonist] (H-[PhLac]TSDK([γGlu-γGlu-Palmitoyl])SKYLDSRRAQDFVQWLMDT-NH2), the Emax [1] was 116%.
`CC[C@H](C)[C@H](NC(=O)[C@H](Cc1ccccc1)NC(=O)[C@@H](NC(=O)CNC(=O)[C@H](CCC(N)=O)NC(=O)C(C)(C)NC(=O)[C@@H](N)Cc1c[nH]cn1)[C@@H](C)O)C(=O)N[C@@H](CO)C(=O)N[C@@H](CC(=O)O)C(=O)N[C@@H](CCCCNC(=O)CCOCCOCCOCCOCCNC(=O)CCCC[C@@H]1SC[C@@H]2NC(=O)N[C@@H]21)C(=O)N[C@@H](CO)C(=O)N[C@@H](CCCCN)C(=O)N[C@@H](Cc1ccc(O)cc1)C(=O)N[C@@H](CC(C)C)C(=O)N[C@@H](CC(=O)O)C(=O)NC(C)(C)C(=O)N[C@@H](CCCNC(=N)N)C(=O)N[C@@H](C)C(=O)N[C@@H](C)C(=O)N[C@@H](CCC(N)=O)C(=O)N[C@@H](CC(=O)O)C(=O)N[C@@H](Cc1ccccc1)C(=O)N[C@H](C(=O)N[C@@H](CCC(N)=O)C(=O)N[C@@H](Cc1c[nH]c2ccccc12)C(=O)N[C@@H](CC(C)C)C(=O)N[C@@H](CCSC)C(=O)N[C@@H](CC(=O)O)C(=O)N[C@H](C(=O)O)[C@@H](C)O)C(C)C` [Biotin-GCG] showed an Emax [2] of 124%.
`N#Cc1ccc(COc2cccc(C3CCN(Cc4nc5ccc(C(=O)O)cc5n4C[C@@H]4CCO4)CC3)n2)c(F)c1` [danuglipron] was tested, and the “increase in the percentage of phosphorylated GLP-1R proteoforms” value [3] was 14.5%, the Emax [4] was 116% and the Emax [5] was 130%. The Emax [6] was 127%, the Emax [7] was 99% and the Emax [8] was 123%.
